Assay results published in patent publication US20100273656A1, “COMPOSITION AND METHOD FOR SELECTIVE HERBICIDE” (priority 2002, published 2010).

Legend:
[1] = tested on: dandelion; assay: Example 14 field dandelion test of iron chelates and 50:50 mixtures; format: in vivo, Taraxacum officinale; set-up: Surviving Dandelions (%): concentration or dose not given beside the values
Description: Solutions were made of FeHEDTA (0.2% Fe), FeEDTA (0.2% Fe), FeEDDS (0.4% Fe), and FeMGDA (0.4% Fe). For the combinations, these 4 solutions were mixed together in a 1:1 ratio. The plots (0.25 m^2) were sprayed 3 times at weekly intervals at a rate of 0.1 L/m^2. The plots contained a mixture of dandelion and hard fescue turfgrass.

[2] = tested on: white clover; assay: Example 18 FeHEDTA with Killex, white clover; format: in vivo
Procedure: (§1) Plants were fertilized with an all purpose water-soluble fertilizer mix of 20-20-20 (N-P-K; Plant-Prod®) as needed. All broadleaf weeds were grown individually in a 2¼-inch pot until they were a suitable size for herbicide tests (actual weed size is reported in examples below). Perennial ryegrass was also grown in 2¼-inch pots, however many grass seeds were sown in the pot to simulate a small section of turf. Grass plants were continually trimmed to a height of 4 cm, simulating that of a homeowner's lawn. For field tests, plots ¼ m^2 in size were marked out in areas containing the targeted broadleaf weed species growing in turf grass. Plots were continually mowed to simulate a homeowner's lawn. […] In all of the examples, the amounts of the various herbicide components are identified as a percent on a weight basis.
(§2) Killex® (Scotts Canada, Ltd., Ontario, Canada) is a commonly used selective lawn herbicide and was used as the commercial herbicide for herbicide combinations. The labeled dilution and application rates for Killex® are 6 ml into 1 L of solution (0.6%) applied at 200 ml/m^2.
(§3) All visual plant damage assessments were made using a quantitative rating scale; percent control relative to the untreated check (0=no effect; 100=plant death).
(§4) Materials and Methods: This trial was conducted in the greenhouse. Nine pots of white clover and 10 pots of perennial ryegrass were selected for each treatment. Herbicide solutions were prepared using deionized water. The treatments were applied using a hand-trigger sprayer at 200 ml/m^2. All treatments were applied once. Phytotoxicity (%) was assessed 4, 7, and 14 days after application (A4, A7, and A14).

[3] = tested on: dandelion (Taraxacum officinale); assay: Example 12 FeHEDTA field test, dandelion; format: in vivo; details: for Survival of Dandelion Plants (%): day 7/day 0
Procedure: This test evaluated FeHEDTA with 0.15% and 0.2% Fe for controlling the chickweed scarlet pimpernel (Anagallis arvensis) and dandelion (Taraxacum officinale). The solution contained 1.3 times the molar amount of chelating agent as iron. Field areas of well established chickweed and dandelion (0.5 m^2) were sprayed at a rate of 100 ml/m^2.

[4] = tested on: dandelions; assay: Example 2 field test of FeEDDS and FeHEDTA at pH 3 and 7, dandelion; format: in vivo, Taraxacum officinale
Procedure: The following non-limiting examples serve to further describe the invention. Unless otherwise specified, all of the iron solutions were made using the same molar concentration of iron ion as chelating agent. All of the outside tests were done on areas of mixed grass and dandelions that were at least 2 months old. For the greenhouse tests, dandelions were grown in a commercial greenhouse mix, using supplemental lighting and heating. Each plant was grown in a 2¼ inch pot to a minimum diameter of 20 cm. All of the solutions were sprayed onto the plants at a rate of 100 ml/m^2. The ferrous sulfate formulations that were used in examples 1, 2, 8 and 9 contained 1% iron (180 mM), 18 mM EDTA, 1% citric acid and 0.5% urea. In all of the examples, the amount of iron is identified in brackets as the percent iron on a weight basis.
All plant damage was assessed using a qualitative rating scale from 0 to 9.
The FeEDDS and FeHEDTA solutions contained 0.2% Fe^+3 (35.8 mM). The ferrous sulfate contained 1% Fe^+2 (179.1 mM). The solutions were sprayed at a rate of 0.1 L/m^2 onto 2 plots of 0.5 m^2 of mixed grass and dandelions. Observations were made 4 days after spraying.

[5] = tested on: broadleaf plantain; assay: Example 19 FeHEDTA with Killex at reduced rates, broadleaf plantain; format: in vivo; details: Killex ® 0%, 7 days after application
Procedure: as §1, §2, §3
as §4, with “Ten broadleaf plantain plants” for “Nine pots of white clover”, “5” for “10”, “7” for “4, 7, and 14”, “(A7).” for “(A4, A7, and A14).”

[6] = tested on: turf bentgrass (Agrostis sp.); assay: Example 11 field test, blackening of bentgrass leaf tips; format: in vivo
Procedure: The product was diluted 6 ml into 1 L of water solution and applied at rate of 200 ml/m^2, as per label instructions.
This test investigated the effect of FeHEDTA and a mixture of FeEDDS and FeMGDA on daisy (Bellis perennis), dandelion (Taraxacum officinale) and a turf bentgrass (Agrostis sp.). The chelating agents were used at one and a half times the molar amount of iron. […] The commercially prepared FeHEDTA product from the Monterey Chemical Company (CA, USA) was used as a standard. […] The solutions were made from NaEDDS (Octaquest E30, Octel) and NaMGDA (Trilon M liquid, BASF, Germany). Ammonium sulfate was added at a concentration of 1%. Killex (Solaris ON, Canada) was diluted and applied as per label instructions of 6 ml/L applied at 200 ml/m^2.
The daisy (0.25 m^2) and dandelion (0.5 m^2) test plots were in different areas of the bentgrass field. The dandelions were large, averaging 30 cm in diameter. The daisy patches were between 10 and 20 cm in diameter. The plants were sprayed weekly 4 times.

O=C([O-])CN(CCO)CCN(CC(=O)[O-])CC(=O)[O-].[Fe+3] [FeHEDTA]
Area Covered by Dandelion (%) ([1]; day 0): 40%
Dandelion Count (#/0.25 m^2) ([1]; day 0): 63 #/0.25 m^2
Dandelion Count (#/0.25 m^2) ([1]; day 6): 60 #/0.25 m^2
Surviving Dandelions (%) ([1]; day 6): 95%
Area Covered by Dandelion (%) ([1]; day 6, sprayed 3 times at weekly intervals): 20%
Dandelion Necrosis (%) ([1]; day 11): 95%
Dandelion Count (#/0.25 m^2) ([1]; day 13): 40 #/0.25 m^2
Surviving Dandelions (%) ([1]; day 13): 63%
Area Covered by Dandelion (%) ([1]; day 15): 8%
Dandelion Necrosis (%) ([1]; day 18): 97%
Area Covered by Dandelion (%) ([1]; day 21): 2%
Dandelion Count (#/0.25 m^2) ([1]; day 21): 26 #/0.25 m^2
Surviving Dandelions (%) ([1]; day 21): 41%
Dandelion Necrosis (%) ([1]; day 33): 97%
Phytotoxicity (%) against white clover ([2]; A4): 27%
Phytotoxicity (%) against white clover ([2]; A7): 50%
Phytotoxicity (%) against white clover ([2]; A14): 18%
Dandelion Plants (#/0.5 m^2) ([3]; 7 days after spraying, listed as FeHEDTA (0.15% Fe)): 19 #/0.5 m^2
Dandelion Plants (#/0.5 m^2) ([3]; 7 days after spraying, listed as FeHEDTA (0.20% Fe)): 24 #/0.5 m^2
numbers of dandelions, in words ([3]; Example 12, text): significantly reduced
Dandelion Plants (#/0.5 m^2) ([3]; day 0, listed as FeHEDTA (0.15% Fe)): 57 #/0.5 m^2
Dandelion Plants (#/0.5 m^2) ([3]; day 0, listed as FeHEDTA (0.20% Fe)): 84 #/0.5 m^2
Survival of Dandelion Plants (%) ([3]; listed as FeHEDTA (0.15% Fe)): 33%
Survival of Dandelion Plants (%) ([3]; listed as FeHEDTA (0.20% Fe)): 29%
Dandelion Damage (0 to 9) ([4]; solution pH 2.6-3.0, 0.1 L/m^2, 4 days after spraying): 7.0 0 to 9
Dandelion Damage (0 to 9) ([4]; solution pH 7.0-7.1, 0.1 L/m^2, 4 days after spraying): 7.5 0 to 9
A7 Phytotoxicity (%) against broadleaf plantain ([5]; listed as FeHEDTA 0.1% Fe): 9%
A7 Phytotoxicity (%) against broadleaf plantain ([5]; listed as FeHEDTA 0.2% Fe): 10%
A7 Phytotoxicity (%) against broadleaf plantain ([5]; listed as FeHEDTA 0.4% Fe): 22%
Blackening of Bentgrass (Agrostis) Leaf Tips (0 to 9) ([6]; day 1): 0
Blackening of Bentgrass (Agrostis) Leaf Tips (0 to 9) ([6]; day 6): 0
Blackening of Bentgrass (Agrostis) Leaf Tips (0 to 9) ([6]; day 9): 0
Blackening of Bentgrass (Agrostis) Leaf Tips (0 to 9) ([6]; day 16): 2
Blackening of Bentgrass (Agrostis) Leaf Tips (0 to 9) ([6]; day 21): 0.5 0 to 9
Blackening of Bentgrass (Agrostis) Leaf Tips (0 to 9) ([6]; day 23): 0
Blackening of Bentgrass (Agrostis) Leaf Tips (0 to 9) ([6]; day 30): 0
